Reference: patent publication US20060166941A1, “Treatment and/or prevention of non-viral epithelial damage” (Epistem Limited, priority 2003, published 2006)
Several values for one entry are separate records, joined by “and”; a condition that tells them apart may be missing. Equal entries are not always repeated. Structures can show the parent of a compound that is named as a salt.

Columns and labels:
[1] = tested on: clonogenic stem cells of the digestive epithelium; assay: In vivo protection of intestinal epithelium clonogenic stem cells, radiation damage, independent experiment 1 (regenerating crypts); design: species or system mice; settings: for corrected crypts/circumference / no. crypts/circumference: day 4; for Protection Factor: 13Gy, corrected crypts treated / vehicle
Source text: In Vivo Protection of Intestinal Epithelium Clonogenic Stem Cells—Radiation Damage Independent Experiment 1.
(§1) The ability of foscarnet (phosphonoformic acid trisodium salt hexahydrate) to prevent radiological damage to clonogenic stem cells of the digestive epithelium was illustrated by the following experiment.
(§2) The model of radiological insult used was treatment with 13 Gy X-ray whole body radiation at a dose rate of 0.7 Gy/minute. Such radiation treatment provides a model of radiotherapy administered to patients undergoing treatment for cancer.
Four experimental groups, each of six mice, were established as set out below:
(§3) Group 1: Received intra-peritoneal injection, containing 50 mg foscarnet/kilogram bodyweight, in sterile water, one hour prior to radiation treatment. Received one further identical injection on each of the three days following radiation treatment.
Group 2: Received intra-peritoneal injection, containing 100 mg foscarnet/kilogram bodyweight, in sterile water, one hour prior to radiation treatment. Received one further identical injection on each of the three days following radiation treatment.
(§4) Group 3: Vehicle control. Received intra-peritoneal injection, of sterile water, one hour prior to radiation treatment. Received one further identical injection on each of the three days following radiation treatment.
Group 4: Untreated controls. Received neither injections nor exposure to radiation.
(§5) On the fourth day after treatment the animals of each group were killed, and intestinal tissue harvested for histological analysis. Tissue sections were stained with haemotoxylin and eosin, and were analysed for the presence of regenerating intestinal crypts. Regenerating intestinal crypts are derived from one or more surviving clonogenic stem cells, whereas sterilised crypts (containing no surviving stem cells) disappear within two days of irradiation. The number of regenerating crypts per intestinal circumference was counted, and the mean crypt width measured. Scores for each animal were then corrected to account for the probability of preferentially scoring larger crypts according to the following equation: [formula]
(§6) For each treatment a Protection Factor was calculated using the following equation: corrected crypts/circumference treated corrected crypts/circumference untreated (vehicle)

[2] = tested on: clonogenic stem cells of the digestive epithelium; assay: In vivo protection of intestinal epithelium clonogenic stem cells, radiation damage, independent experiment 2; design: species or system mice; settings: for corrected crypts/circumference / no. crypts/circumference: day 4; for Protection Factor: 13Gy, corrected crypts treated / vehicle
Source text: In Vivo Protection of Intestinal Epithelium Clonogenic Stem Cells—Radiation Damage Independent Experiment 2.
as §1, §2
Three experimental groups, each of six mice, were established as set out below:
as §3
Group 2: Received intra-peritoneal injection, containing 25 mg foscarnet/kilogram bodyweight, in sterile water, one hour prior to radiation treatment. Received one further identical injection on each of the three days following radiation treatment.
as §4, §5, §6

oral mucosa = assay: In vivo protection of oral mucosa following chemotherapy (5FU) damage, ventral tongue cellularity; design: species or system mice; settings: 50 mg/kg intra-peritoneal 1 hr prior to 5FU (400 mg/kg x 2) and daily for three days; versus vehicle
Description: In Vivo Protection of Oral Mucosa Following Chemotherapy Damage. The ability of foscarnet (phosphonoformic acid trisodium salt hexahydrate) to prevent cytotoxic damage to oral mucosa was illustrated by the following experiment. The model of cytotoxic insult used was treatment with 2 doses of 400 mg/kilogram bodyweight 5-Flurouracil 6 hours apart. Such cytotoxic treatment provides a model of chemotherapy administered to patients undergoing treatment for cancer. Experimental groups, each of five mice, were established as set out below: Group 2: Received intra-peritoneal injection, containing 50 mg foscarnet/kilogram bodyweight, in sterile water, one hour prior to the first cytotoxic treatment (400 mg 5-Flurouracil/kilogram bodyweight). Received one further identical injection of foscarnet (50 mg/kilogram bodyweight) on each of the three days following cytotoxic treatment. […] Tissue sections were stained with thionin and using a Zeiss AxioHOME the number of cells were assessed in both the basal and suprabasal layers of the ventral surface of the tongue. The area from the basal layer to the stratum corneum stratum granulosum interface was measured along with the length of the basal layer. […] From these measurements the damage that the 5FU had caused to the tongue could be assessed as overall cellularity of the tongue or the total number of cells/unit area (mm^2). […]

intestinal crypt cells = assay: Epithelial cell kinetic evaluation following oral administration (BrdUrd labelling, tolerability); format: in vivo; settings: 500 mg/kg oral gavage once a day for 4 days
Description: Epithelial Cell Kinetic Evaluation Following Oral Administration of Foscarnet Phosphonoformic Acid Trisodium Salt Hexahydrate).
Intestinal epithelial cell stimulation following an oral application of foscarnet (phosphonoformic acid trisodium salt hexahydrate) was illustrated by the following experiment.
Two experimental groups, each of three mice, were established as set out below:
Group 1: Received oral gavage, containing 500 mg foscarnet/kilogram bodyweight, in sterile water, once a day for 4 days. On the fifth day the animals received a pulse of 10 mg Bromodeoxyuridine (BrdUrd) and 40 minutes laster were killed and small intestine and kidneys harvested for analysis.
Group 2: Received oral gavage of sterile water, once a day for 4 days On the fifth day the animals received a pulse of 10 mg Bromodeoxyuridine and 40 minutes laster were killed and small intestine and kidneys harvested for analysis.
Slides were immunohistochemically labelled for BrdUrd and counterstained with thionin to assess intestinal epithelial cell kinetic changes with oral administration of foscarnet. To assess epithelial cell kinetic changes, 50 small intestinal crypts per animal were quantified on a cell positional basis for the number of positively labelled S-phase cells at each cell position in the crypt. Quantification starts at the bottom of the crypt (cell position 1) and continues up one side of the crypt assessing each cell in turn to the crypt villus junction.

[3] = 13Gy plus 50 mg foscarnet -1 hr, 1, 2, 3 day, group Average
[4] = 13Gy plus 50 mg foscarnet -1 hr, 1, 2, 3 day, individual mice
[5] = 13Gy plus 100 mg foscarnet -1 hr, 1, 2, 3 day, group Average
[6] = 13Gy plus 100 mg foscarnet -1 hr, 1, 2, 3 day, individual mice
[7] = 50 mg foscarnet -1 hr, 1, 2, 3 day
[8] = 13Gy plus 25 mg foscarnet -1 hr, 1, 2, 3 day, group Average
[9] = 13Gy plus 25 mg foscarnet -1 hr, 1, 2, 3 day, individual mice

SMILES: O=C(O)P(=O)(O)O [foscarnet, phosphonoformic acid trisodium salt hexahydrate]
- corrected crypts/circumference [1, 3]: 3.8
- no. crypts/circumference [1, 3]: 6.8
- corrected crypts/circumference [1, 4]: 2.6 and 6.1 and 3.6 and 4.3 and 2.5
- no. crypts/circumference [1, 4]: 4.8 and 10.7 and 6.6 and 7.2 and 4.5
- corrected crypts/circumference [1, 5]: 3.2
- no. crypts/circumference [1, 5]: 5.6
- corrected crypts/circumference [1, 6]: 3.0 and 3.6 and 2.5 and 2.1 and 4.8
- no. crypts/circumference [1, 6]: 5.5 and 6.4 and 4.3 and 3.8 and 8.0
- Protection Factor [1, 7]: 1.52
- more crypts compared to mice treated with vehicle alone ([1]; 13 Gy, 50 mg/kg foscarnet): ~50%
- more small intestinal clonogenic stem cells survived ([1]; 13 Gy, 50 mg/kg foscarnet): at least 50%
- Protection Factor ([1]; 100 mg foscarnet -1 hr, 1, 2, 3 day): 1.28
- numbers of intestinal crypts after exposure to radiation ([1]; Groups 1 and 2 (50 mg foscarnet and 100 mg foscarnet), 13 Gy): increased numbers of intestinal crypts
- corrected crypts/circumference [2, 8]: 2.8
- no. crypts/circumference [2, 8]: 5.7
- corrected crypts/circumference [2, 9]: 1.4 and 2.0 and 2.7 and 4.4 and 3.0 and 3.3
- no. crypts/circumference [2, 9]: 2.6 and 4.1 and 5.4 and 9.4 and 6.3 and 6.4
- corrected crypts/circumference [2, 3]: 4.7
- no. crypts/circumference [2, 3]: 8.8
- corrected crypts/circumference [2, 4]: 6.5 and 4.4 and 2.7 and 1.9 and 5.4 and 7.5
- no. crypts/circumference [2, 4]: 11.8 and 8.7 and 5.2 and 4.1 and 9.6 and 13.2
- Protection Factor ([2]; 25 mg foscarnet -1 hr, 1, 2, 3 day): 1.12
- Protection Factor [2, 7]: 1.88
- more crypts compared to mice treated with vehicle alone ([2]; 13 Gy, 50 mg/kg foscarnet): ~50%
- more small intestinal clonogenic stem cells survived ([2]; 13 Gy, 50 mg/kg foscarnet): at least 50%
- numbers of intestinal crypts after exposure to radiation ([2]; Groups 1 and 2 (50 mg foscarnet and 25 mg foscarnet), 13 Gy): increased numbers of intestinal crypts
- numbers of cells per unit area in the epithelium covering the ventral surface of the tongue (FIG. 4) (oral mucosa): extra cells per unit area gained
- deaths or signs of illness (intestinal crypt cells): no deaths or signs of illness
- tolerability of relatively high oral doses (intestinal crypt cells): tolerated without notable toxicity
- kidney damage judged by histological sectioning (intestinal crypt cells; end of treatment period): neither of the groups showed overt signs of kidney damage
- BrdUrd labelling index in intestinal crypt cells (FIG. 5) (intestinal crypt cells; versus vehicle control): stimulating effect on intestinal crypt cells
